Source: patent US20110045027A1, “Adjuvant” (Glaxo Group Limited, priority 2005, published 2011)

Experiments:
[1] = system: mouse skin; assay: In vivo delivery by intradermal injection and luciferase assay (pGL3CMV plasmid); parameters: species or system Balb/c×C3H F1 female mice; details: FIG. 3, OPTIMEM, 0.5:1 (w/w gemini:DNA)
Excerpt: Plasmid pGL3CMV is a luciferase expression vector based upon pGL3 Basic, (Promega Corporation., Madison, Wis., USA), where the CMV immediate early promoter drives luciferase expression. The plasmid pGL3CMV was used in all gene expression studies in mouse skin biopsies and has been described in WO03/061636.
Gemini surfactants were mixed with plasmid DNA by drop by drop addition of the diluted gemini surfactant formulation (in OPTIMEM) to the diluted plasmid DNA formulation (in OPTIMEM) at room temperature whilst the mixture was being mixed using a Vortex mixer (Mini Vortexer, VWR). […]
Plasmid DNA was delivered into the skin of Balb/c×C3H F1 female mice. […] Groups of 8-10 animals (or 4 to 5 animals with two injection sites) were analysed for skin gene expression. […]
Skin samples were thawed to room temperature and disrupted in 500 ul of Passive Lysis Buffer™ (Promega Corporation, Madison, Wis., USA) using an IKA Labortechnic Ultra turrax T8 polytron. Luciferase enzyme activity was determined using a luciferase assay kit (Promega). […] Luciferase activity (RLU) was measured as counts per minute on the Victor 2 1420 multilabel HTS counter on the luminescence program (Wallac, Perkin Elmer). Total protein concentration was calculated by a Coomassie Plus protein assay reagent kit (Perbio) using the manufacturer's protocol. […] The absorbance was measured at 595 nm on a Molecular Devices Spectra Max 340. […]

[2] = system: Balb/c mice; assay: Humoral responses by ELISA, antigen-specific whole IgG (HIV RNG fusion protein); type: in vivo; details: Example 48; intradermal delivery, FIG. 11, day 14 post-boost
Description: (§1) Acclimatised 6-8 week old Female Balb/c mice were maintained under general anaesthesia using an oxygen-controlled inhaled Isoflourane mask for application by intradermal injection to the pre-shaved lower back above the base of the tail. Where necessary mice were given Rimadyl (Carprofen) as an analgesic in a sub-cutaneous dose of 5 mg/Kg, diluted 1:10 and delivered at 20 μl/mouse. Injections of up to 50 μl of freshly formulated DNA with or without gemini surfactant were given via BD 0.5 ml insulin syringes with 29 g needles.
The humoral response was assessed by measuring antigen-specific whole IgG antibody levels (eg. to HIV RNG fusion protein) in the serum samples collected after primary and boost immunisation. […] The amount of bound antibody was determined after 4 further washes (as above) followed by addition of TMB substrate solution (T-8540-Sigma). After 30 minutes at 20° C. protected from light, the reaction is stopped with 1M sulphuric acid and absorbance read at 450 nm. […]
Humoral responses to RNG fusion peptide (WO03/025003), as serum whole IgG, were monitored at day 14 post-boost (FIG. 11). […]
Humoral responses were also analysed in this example. The humoral responses were measured as whole serum IgG and data were collected both after a homologous prime and boost and again after a heterologous boost with NHP Adenovirus p6GRN, see FIG. 42. […]

[3] = Particle size of gemini surfactant solutions by quasi-elastic light scattering (QELS); type: physicochemical; details: fresh solutions stored at 4° C., particle size at bi-weekly intervals, 10-week study, FIG. 28
Description: All gemini surfactants were prepared from lyophilised stocks by vortex re-suspension in pure water at a stock concentration of 1 mg/ml stored at 4° C. Gemini surfactants were diluted either in pure water or were directly diluted in Optimem®1 (GIBCO Invitrogen) for immediate use. Where gemini surfactants were formulated together with other helper lipids such as DOPE, these were co-lyophilised at a 1:1, (w/w) ratio and similarly vortex re-suspended in pure water at a stock concentration of 1 mg/ml stored at 4° C.
(§2) The size of the particles formed by gemini surfactants and their complexes with plasmid DNA was measured by quasi-elastic light scattering (QELS) (Finsy, R., Advances in Colloid and Interface Science (1994) 52 (19 September):79-143; Gittings, M. R., and Saville, D. A., Colloids and Surfaces A: Physicochemical and Engineering Aspects (1998) 141: 111-117). Samples (50 μl) were analysed using a Brookhaven Instruments Corporation particle size analyser (BIC 90 Plus) following the manufacturer's instructions: 10 measurements, each consisting of 10 runs were taken per sample. […] The average particle size was automatically derived from the raw data by the instrument and expressed as the mean hydrodynamic diameter in nanometers (nm). […]
The colloidal properties of gemini surfactant solutions were monitored over time in order to analyse their apparent instability in greater detail. […]

[4] = system: plasmid DNA (pdpSC18); assay: Particle size of gemini surfactant-plasmid DNA complexes (lipoplexes) by QELS; type: physicochemical; details: buffers covering pH 6.5 to pH 4.5, FIG. 33
Description: Gemini surfactants were mixed with plasmid DNA by drop by drop addition of the diluted gemini surfactant formulation (in OPTIMEM) to the diluted plasmid DNA formulation (in OPTIMEM) at room temperature whilst the mixture was being mixed using a Vortex mixer (Mini Vortexer, VWR). The ratio of gemini surfactant to plasmid DNA was varied from 0.2:1 (w/w) to 4:1 (w/w) so that for a final volume of 50 ul per delivery, the formulation contained 10 ug of plasmid DNA with gemini surfactant at the correct ratio. Gemini: DNA mixtures or complexes were left at room temperature for 15 minutes post mixing to form and were then delivered to animals within 15 to 30 minutes. […]
as §2

[5] = system: Balb/c mice; assay: Cellular immune responses by IFN-γ / IL2 ELISPOT after immunisation with plasmid p7313iTrng; type: in vivo; details: Example 48; intradermal delivery, FIGS. 5 to 10
Excerpt: Plasmid p7313iTrng, is a vector where the CMV immediate early promoter drives the expression of a fusion antigen, RNG, consisting of parts of the HIV reverse transcriptase, nef and gag genes. The plasmid p7313iTrng was used in all immune response studies in mouse (WO03/025003).
as §1, with “Injections of up to 50 μl of freshly formulated DNA with or without gemini surfactant were given via BD 0.5 ml insulin syringes with 29 g needles.” left out
Mice were killed by cervical dislocation and spleens were collected into ice-cold PBS. […] After two washes in PBS to remove particulate matter the concentration of cells in the single cell suspension was assessed by counting in a Guava Flow Cytometer. […] After overnight culture, IFN-γ or IL2 producing cells were visualised by application of anti-murine IFN-γ-biotin or IL2-biotin labelled antibody (Pharmingen) followed by streptavidin-conjugated alkaline phosphatase and quantitated using image analysis.
Representatives of 3 classes of gemini surfactants were assessed for their ability to induce both cellular and humoral immune responses upon delivery to mouse skin through the intradermal route. […]

Structure (SMILES) | gene delivery and/or expression in mouse skin versus DNA with DMRIE-C or electroporation [1] | level of humoral immune responses versus PMED at boost [2] | storage time for which the solution remained stable before particle formation [3] [weeks] | pH sensitivity of lipoplexes (particle size versus pH) [4] | level of cellular immune responses versus PMED at boost [5]
CCCCCCCC/C=C\CCCCCCCC(=O)NCCCN(CCCCN(CCCNC(=O)CCCCCCCCCCCCCCCCC)C(=O)[C@H](N)CCCCN)C(=O)[C@H](N)CCCCN [GSC103 D-Lys, Oleic Acid, Stearic Acid] | exception |  |  |  | 
CCCCCCCC/C=C\CCCCCCCC(=O)NCCCN(CCCCN(CCCNC(=O)CCCCCCC/C=C\CCCCCCCC)C(=O)[C@@H](N)CCCCN)C(=O)[C@@H](N)CCCCN [GSC103-L-Lys] |  | comparable to those induced by PMED at boost | 2 | fluctuated with falling pH | comparable to those induced by PMED at boost
